Data: paper PMC9083112, “D-Allulose (D-Psicose) Biotransformation From Allitol by a Newly Found NAD(P)-Dependent Alcohol Dehydrogenase From Gluconobacter frateurii NBRC 3264 and the Enzyme Characterization” (Frontiers in Microbiology, 2022)

Biological target: T1, NAD(P)-dependent alcohol dehydrogenase (ADH) (Gluconobacter frateurii, UniProt Z9DFN4ZG31)
T1 construct: primers encode N-terminal MAQALVLEK and C-terminal DVKLQIVL
T1 sequence (Z9DFN4ZG31 1-345): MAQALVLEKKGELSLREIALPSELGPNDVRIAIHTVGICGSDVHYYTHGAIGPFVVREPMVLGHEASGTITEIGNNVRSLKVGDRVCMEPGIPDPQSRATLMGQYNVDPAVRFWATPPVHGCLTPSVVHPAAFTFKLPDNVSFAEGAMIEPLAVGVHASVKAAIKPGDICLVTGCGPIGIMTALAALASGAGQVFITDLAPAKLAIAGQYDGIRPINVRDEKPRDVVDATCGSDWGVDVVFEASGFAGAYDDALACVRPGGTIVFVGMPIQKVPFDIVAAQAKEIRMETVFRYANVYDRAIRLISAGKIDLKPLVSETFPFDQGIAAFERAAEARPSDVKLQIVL
Assay: global fit (genetic algorithm) of HPLC time courses at […] allitol
Assay type: biochemical
Details: product inhibition, noncompetitive form with exponent alpha 1.326; one ki shared by fits with and without Co2+; allitol as substrate; NAD+ 2 mM, pH 7.0, 50 °C; purified or crude enzyme not stated

Structure (SMILES): OCC1(O)OC[C@@H](O)[C@@H](O)[C@H]1O (stereo partly drawn) [D-allulose]
- Ki: 10.7 mM
